Consider two compounds from paper PMC8341910, “Structural and biophysical insights into the mode of covalent binding of rationally designed potent BMX inhibitors” (RSC Chemical Biology, 2020).

The subject of one assay is PC3. Briefly: Multi cell line growth assay (CellTiter-Glo, 72 h). To be noted: Homo sapiens, PC-3, Prostate, ND = no growth inhibition observed. It is filed as cell-based, human.
In a further assay the target is T1, hBMX (Homo sapiens, UniProt P51813).
T1 construct: Crystallization, data collection, and structure determination of BMX catalytic domain in; made in house; host or cells: Sf-9 insect cells
T1 sequence (P51813 417-675 limits assumed): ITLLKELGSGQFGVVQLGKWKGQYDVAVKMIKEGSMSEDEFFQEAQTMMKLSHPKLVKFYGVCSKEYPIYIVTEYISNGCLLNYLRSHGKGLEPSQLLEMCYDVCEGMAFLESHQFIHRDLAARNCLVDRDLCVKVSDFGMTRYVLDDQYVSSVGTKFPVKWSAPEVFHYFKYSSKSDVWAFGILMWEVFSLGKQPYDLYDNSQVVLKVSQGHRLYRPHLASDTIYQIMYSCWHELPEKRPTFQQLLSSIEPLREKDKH
The assay can be described thus: Mass spectrometry of drug-conjugated hBMX. To be noted: 2.5 mM compound, room temperature, 30 min, PBS pH 7.4; MS/MS after digestion. As for the experimental part: Mass spectrometry (MS) studies confirmed the covalent binding of JS24 at cysteine 496 of BMX. The truncated hBMX was analyzed by native MS and the protein mass found was 30899 Da (Fig. 2a). The protein was then treated with 2.5 mM of JS24 at room temperature for 30 min in PBS pH 7.4 and directly analyzed by denaturing MS. The protein was fully denatured and cleaned on a reverse phase column, discarding any non-specific binding, to retain only any covalently linked compound. The mass found upon incubation with JS24 is 31 424 Da, which is 525 Da larger than the apo-form of hBMX (Fig. 2b).
Fig. 2 Mass spectrometric analysis of BMX and JS24 conjugated to BMX. (a) Native MS analysis of hBMX. The measured molecular weight is indicated. […] The measured molecular weight is indicated. […]
The BMX enzyme system (Catalog. V4512) and the ADP-GloTM kinase assay were purchased from Promega Corporation (USA). […] Then, 10 µL of kinase detection reagent was added into the wells and incubated for 30 min to produce a luminescence signal. The signal was measured using an Infinite M200 Microplate Reader (Tecan Group Ltd, Switzerland), with an integration time of 0.250s. The observed rate constants for inhibition (kobs), at different inhibitor concentrations, were determined from the slope of a semi-logarithmic plot of inhibition versus time, and re-plotted against inhibitor concentration (nM). […]

In a further assay the test system is DAUDI. Briefly: Multi cell line growth assay (CellTiter-Glo, 72 h). The class given is cell-based, human. To be noted: Homo sapiens, Daudi, Lymphoid, ND = no growth inhibition observed.
A further assay concerns the target LCK (Homo sapiens, UniProt P06239). The assay can be described thus: KINOMEscan binding. To be noted: read-out: % Ctrl LCK.
The next assay deals with BLK (Homo sapiens, UniProt P51451). The assay can be described thus: KINOMEscan binding. The following applies: read-out: % Ctrl BLK.
Chain of BLK (P51451 whole entry): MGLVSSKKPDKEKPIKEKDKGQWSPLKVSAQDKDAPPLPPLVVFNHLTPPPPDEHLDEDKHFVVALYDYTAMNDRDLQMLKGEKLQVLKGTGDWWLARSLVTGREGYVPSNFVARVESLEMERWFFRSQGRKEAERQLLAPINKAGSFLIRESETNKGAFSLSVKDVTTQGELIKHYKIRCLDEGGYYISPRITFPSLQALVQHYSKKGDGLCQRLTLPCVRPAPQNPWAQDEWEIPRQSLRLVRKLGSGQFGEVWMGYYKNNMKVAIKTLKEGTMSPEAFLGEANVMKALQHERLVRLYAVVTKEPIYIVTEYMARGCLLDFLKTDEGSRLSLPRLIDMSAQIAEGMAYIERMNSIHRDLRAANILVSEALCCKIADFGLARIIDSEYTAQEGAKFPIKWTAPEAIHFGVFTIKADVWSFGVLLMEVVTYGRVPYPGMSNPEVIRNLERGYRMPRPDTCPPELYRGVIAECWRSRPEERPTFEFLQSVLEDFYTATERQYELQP
The next assay addresses ABL1-phosphorylated (Homo sapiens, UniProt P00519). Briefly: KINOMEscan binding. The following applies: read-out: % Ctrl ABL1-phosphorylated.
The target in the next assay is ERBB4 (Homo sapiens, UniProt Q15303). The assay can be described thus: KINOMEscan binding. To be noted: read-out: % Ctrl ERBB4.
A further assay concerns the target PIK3CB (Homo sapiens, UniProt P42338). The assay can be described thus: KINOMEscan binding. To be noted: read-out: % Ctrl PIK3CB.
A further assay addresses SRC (Homo sapiens, UniProt P12931). Briefly: KINOMEscan binding. To be noted: read-out: % Ctrl SRC.
The target in the next assay is TEC (Homo sapiens, UniProt P42680). The assay can be described thus: KINOMEscan binding. The following applies: read-out: % Ctrl TEC.
Chain of TEC (P42680 whole entry): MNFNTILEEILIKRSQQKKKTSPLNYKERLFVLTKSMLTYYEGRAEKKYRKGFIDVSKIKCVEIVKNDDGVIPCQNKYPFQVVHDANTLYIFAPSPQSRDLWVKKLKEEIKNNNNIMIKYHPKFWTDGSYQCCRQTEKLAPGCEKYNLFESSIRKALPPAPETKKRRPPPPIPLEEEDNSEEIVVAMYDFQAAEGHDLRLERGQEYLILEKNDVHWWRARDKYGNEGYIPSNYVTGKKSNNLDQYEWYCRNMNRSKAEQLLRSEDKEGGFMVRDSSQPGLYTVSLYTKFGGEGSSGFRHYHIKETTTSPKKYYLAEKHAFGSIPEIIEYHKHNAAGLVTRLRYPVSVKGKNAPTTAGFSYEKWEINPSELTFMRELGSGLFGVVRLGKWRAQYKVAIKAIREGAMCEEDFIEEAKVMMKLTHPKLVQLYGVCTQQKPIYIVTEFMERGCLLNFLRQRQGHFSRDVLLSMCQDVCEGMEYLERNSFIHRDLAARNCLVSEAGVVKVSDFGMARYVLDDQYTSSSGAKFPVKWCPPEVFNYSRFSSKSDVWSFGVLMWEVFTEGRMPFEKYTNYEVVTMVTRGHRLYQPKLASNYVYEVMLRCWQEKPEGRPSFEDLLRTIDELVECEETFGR
For another assay, the target named is FGR (Homo sapiens, UniProt P09769). The assay can be described thus: KINOMEscan binding. The following applies: read-out: % Ctrl FGR.
Chain of FGR (P09769 whole entry): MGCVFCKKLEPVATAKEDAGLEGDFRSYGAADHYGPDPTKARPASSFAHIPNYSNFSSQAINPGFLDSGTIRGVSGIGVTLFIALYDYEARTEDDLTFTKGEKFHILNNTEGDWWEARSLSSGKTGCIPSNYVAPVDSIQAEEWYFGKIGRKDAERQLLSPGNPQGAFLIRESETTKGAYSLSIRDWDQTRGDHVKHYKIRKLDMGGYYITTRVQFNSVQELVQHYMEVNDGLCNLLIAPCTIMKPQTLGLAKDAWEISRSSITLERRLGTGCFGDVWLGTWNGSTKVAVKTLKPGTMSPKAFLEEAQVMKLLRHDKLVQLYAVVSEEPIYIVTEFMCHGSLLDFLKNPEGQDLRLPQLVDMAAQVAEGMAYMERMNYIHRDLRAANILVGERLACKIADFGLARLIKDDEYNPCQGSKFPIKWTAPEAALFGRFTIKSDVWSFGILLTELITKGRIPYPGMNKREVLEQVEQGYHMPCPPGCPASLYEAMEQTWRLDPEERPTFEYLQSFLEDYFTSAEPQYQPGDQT
A further assay addresses AKT3 (Homo sapiens, UniProt Q9Y243). Briefly: KINOMEscan binding. The following applies: read-out: % Ctrl AKT3.

Chain of LCK (P06239 whole entry): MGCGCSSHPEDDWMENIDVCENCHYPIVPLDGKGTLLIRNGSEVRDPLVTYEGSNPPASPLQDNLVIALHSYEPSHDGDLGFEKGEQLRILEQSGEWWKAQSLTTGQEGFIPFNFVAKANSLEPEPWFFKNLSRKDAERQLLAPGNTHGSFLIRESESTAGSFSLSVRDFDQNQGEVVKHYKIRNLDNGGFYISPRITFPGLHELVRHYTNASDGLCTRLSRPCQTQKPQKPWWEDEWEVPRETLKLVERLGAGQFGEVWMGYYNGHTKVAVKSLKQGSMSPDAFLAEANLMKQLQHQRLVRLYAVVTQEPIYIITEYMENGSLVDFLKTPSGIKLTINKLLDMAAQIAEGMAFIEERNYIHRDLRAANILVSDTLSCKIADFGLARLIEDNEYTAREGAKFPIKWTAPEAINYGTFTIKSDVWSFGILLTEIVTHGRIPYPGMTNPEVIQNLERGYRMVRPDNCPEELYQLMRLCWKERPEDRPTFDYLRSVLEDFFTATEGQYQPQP
Chain of SRC (P12931 whole entry): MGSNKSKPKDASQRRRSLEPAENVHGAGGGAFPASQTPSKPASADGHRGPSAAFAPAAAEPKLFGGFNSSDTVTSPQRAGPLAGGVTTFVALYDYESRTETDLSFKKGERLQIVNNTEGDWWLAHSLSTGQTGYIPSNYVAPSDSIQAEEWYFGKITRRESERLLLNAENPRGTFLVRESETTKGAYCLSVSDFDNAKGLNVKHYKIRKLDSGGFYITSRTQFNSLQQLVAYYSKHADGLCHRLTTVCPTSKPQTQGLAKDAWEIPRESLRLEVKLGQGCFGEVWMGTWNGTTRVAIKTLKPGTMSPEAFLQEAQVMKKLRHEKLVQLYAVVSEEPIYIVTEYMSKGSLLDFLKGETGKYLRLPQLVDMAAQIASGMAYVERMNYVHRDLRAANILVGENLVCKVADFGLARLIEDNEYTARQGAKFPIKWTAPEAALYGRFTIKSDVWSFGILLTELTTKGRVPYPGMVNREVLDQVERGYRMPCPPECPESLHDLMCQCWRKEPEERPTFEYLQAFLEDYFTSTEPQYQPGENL
Chain of PIK3CB (P42338 whole entry): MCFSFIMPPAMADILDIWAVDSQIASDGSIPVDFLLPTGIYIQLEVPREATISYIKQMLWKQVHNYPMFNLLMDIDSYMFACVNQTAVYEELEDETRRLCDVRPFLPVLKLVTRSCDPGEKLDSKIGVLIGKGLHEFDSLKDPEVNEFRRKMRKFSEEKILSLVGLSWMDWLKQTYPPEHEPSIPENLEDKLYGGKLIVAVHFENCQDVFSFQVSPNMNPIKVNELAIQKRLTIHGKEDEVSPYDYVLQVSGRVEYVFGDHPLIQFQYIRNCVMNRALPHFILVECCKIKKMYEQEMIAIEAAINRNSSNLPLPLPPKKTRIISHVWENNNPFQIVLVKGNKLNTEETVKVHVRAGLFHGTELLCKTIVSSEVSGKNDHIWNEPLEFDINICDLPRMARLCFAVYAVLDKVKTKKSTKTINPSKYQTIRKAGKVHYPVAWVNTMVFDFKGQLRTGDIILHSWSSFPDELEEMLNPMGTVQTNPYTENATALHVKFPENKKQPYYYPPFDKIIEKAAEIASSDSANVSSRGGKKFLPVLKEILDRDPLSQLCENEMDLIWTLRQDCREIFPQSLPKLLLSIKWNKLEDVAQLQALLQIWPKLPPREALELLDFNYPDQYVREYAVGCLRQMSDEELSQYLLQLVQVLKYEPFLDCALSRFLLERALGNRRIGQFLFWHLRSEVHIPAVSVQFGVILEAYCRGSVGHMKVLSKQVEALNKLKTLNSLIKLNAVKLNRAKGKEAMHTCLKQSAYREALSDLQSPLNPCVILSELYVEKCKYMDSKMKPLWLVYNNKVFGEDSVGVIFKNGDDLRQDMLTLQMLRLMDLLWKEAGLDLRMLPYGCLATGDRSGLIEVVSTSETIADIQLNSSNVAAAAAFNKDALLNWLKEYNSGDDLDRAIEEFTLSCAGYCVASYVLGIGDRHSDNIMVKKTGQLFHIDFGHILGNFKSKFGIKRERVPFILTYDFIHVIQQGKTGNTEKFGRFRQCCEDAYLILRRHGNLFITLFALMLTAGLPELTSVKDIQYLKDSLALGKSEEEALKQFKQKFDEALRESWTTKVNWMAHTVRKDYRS
Chain of AKT3 (Q9Y243 whole entry): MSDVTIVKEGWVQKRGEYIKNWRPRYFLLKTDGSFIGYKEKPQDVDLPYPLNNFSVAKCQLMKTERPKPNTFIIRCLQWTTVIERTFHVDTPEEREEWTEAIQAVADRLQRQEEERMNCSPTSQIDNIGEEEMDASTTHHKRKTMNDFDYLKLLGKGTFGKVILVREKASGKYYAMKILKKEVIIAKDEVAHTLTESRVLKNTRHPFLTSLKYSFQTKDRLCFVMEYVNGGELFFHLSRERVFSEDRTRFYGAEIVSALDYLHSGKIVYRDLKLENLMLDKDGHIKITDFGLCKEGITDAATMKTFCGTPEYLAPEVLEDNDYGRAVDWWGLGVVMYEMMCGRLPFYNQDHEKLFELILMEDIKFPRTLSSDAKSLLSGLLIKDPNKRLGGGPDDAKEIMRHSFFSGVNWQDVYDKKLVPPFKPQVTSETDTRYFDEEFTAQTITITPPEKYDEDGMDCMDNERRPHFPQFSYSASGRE
Method for ABL1-phosphorylated: (§1) Therefore, we included the whole TEC, EGFR and JAK family in our screening, and the Src family and Lkb1, which also have a cysteine within the same sequence alignment. We also included kinases involved in upstream (Src, FAK, PI3K, mTOR, PDK1) and downstream (Akt, PAK1, TAM) regulation of BMX signaling pathway and non-receptor tyrosine protein kinase Abl.
(§2) Kinome selectivity was performed with DiscoverX KINOMEscan™ technology.
Method for AKT3: as §1, §2
Method for BLK: (§3) Therefore, we included the whole TEC, EGFR and JAK family in our screening, and the Src family and Lkb1, which also have a cysteine within the same sequence alignment.
as §2
Method for ERBB4: as §3, §2
Method for FGR: as §3, §2
Method for LCK: as §3, §2
Method for PIK3CB: as §1, §2
Method for SRC: as §1, §2
Method for TEC: as §3, §2

Take `C=CC(=O)Nc1cc(-n2c(=O)ccc3cnc4cc(-c5ccc(NS(C)(=O)=O)cc5)ccc4c32)ccc1C` [JS24]: the GI50 with PC3 turned out to be 4.8 µM; in the assay on DAUDI, 1.27 ± 0.05 µM. Also, the “site of covalent modification of hBMX” value at hBMX is given as “covalent modification at cysteine residue 496”.

Turning to `C=CC(=O)Nc1cc(C)cc(-n2c(=O)ccc3cnc4cc(-c5ccc(NS(C)(=O)=O)cc5)ccc4c32)c1` [JS25], the remaining binding at 1 µM is 80% at LCK; 16% on BLK; 100% at ABL1-phosphorylated; 66% at ERBB4; 89% at PIK3CB; 92% on SRC. For the same compound, the remaining binding at 1 µM on TEC came to 0.4%; on FGR it was 93%; at AKT3, 99%.
